Reference: PubChem BioAssay (NCI)
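Five compound concentrations were applied to cells in 96-well plates for 48 hours; endpoints were derived by simple linear interpolation of the resulting dose-response curve. Abbreviation: GI50, concentration required for 50% inhibition of growth. TGI: total growth inhibition.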

Experiments:
Assay in all cases: NCI tumour cell line growth inhibition, 48 h
HL-60(TB) leukemia = test system: HL-60(TB) leukemia
786-0 renal = test system: 786-0 renal
NCI-H460 lung = test system: NCI-H460 lung
HCT-116 colon = test system: HCT-116 colon
COLO 205 colon = test system: COLO 205 colon
OVCAR-4 ovarian = test system: OVCAR-4 ovarian
UACC-62 melanoma = test system: UACC-62 melanoma
SK-MEL-28 melanoma = test system: SK-MEL-28 melanoma
HOP-62 NSCLC = test system: HOP-62 NSCLC
HCT-15 colon = test system: HCT-15 colon
MDA-MB-231 breast = test system: MDA-MB-231 breast
K-562 leukemia = test system: K-562 leukemia
SR leukemia = test system: SR leukemia
DMS 273 small cell lung = test system: DMS 273 small cell lung
LXFL 529 NSCLC = test system: LXFL 529 NSCLC
DMS 114 small cell lung = test system: DMS 114 small cell lung
M19-MEL melanoma = test system: M19-MEL melanoma

Row | SMILES | TGI (HL-60(TB) leukemia) [µM] | TGI (786-0 renal) [µM] | TGI (NCI-H460 lung) [µM] | TGI (HCT-116 colon) [µM] | TGI (COLO 205 colon) [µM] | TGI (OVCAR-4 ovarian) [µM] | TGI (UACC-62 melanoma) [µM] | TGI (SK-MEL-28 melanoma) [µM] | TGI (HOP-62 NSCLC) [µM] | TGI (HCT-15 colon) [µM] | TGI (MDA-MB-231 breast) [µM] | TGI (K-562 leukemia) [µM] | TGI (SR leukemia) [µM] | TGI (DMS 273 small cell lung) [µM] | TGI (LXFL 529 NSCLC) [µM] | TGI (DMS 114 small cell lung) [µM] | TGI (M19-MEL melanoma) [µM] | GI50 (HCT-116 colon) [µM] | GI50 (UACC-62 melanoma) [µM]
1 | CCCC(=O)OC[n+]1cccc(-c2c(COC(=O)NC(C)C)c(COC(=O)NC(C)C)c3n2CCC3)c1 | > 67.3 | > 100 | > 100 | > 100 | > 100 | > 100 | 61.8 | > 100 | > 100 | > 100 | > 100 | > 100 | > 100 | – | – | – | – | – | –
2 | O=C1c2nn(-c3ccccc3)nc2C(c2ccccc2)N1c1ccccc1 (configuration not stated) | – | > 100 | > 100 | > 100 | > 100 | > 100 | > 100 | > 100 | 96.6 | > 100 | – | > 100 | > 100 | > 100 | > 100 | > 100 | > 100 | – | –
3 | O=C1CC(=O)c2c(Cl)sc(Cl)c21 | 85.6 | > 100 | > 100 | > 100 | > 100 | 76.3 | > 100 | > 100 | > 100 | > 100 | > 100 | > 100 | 75.2 | – | – | – | – | – | –
4 | CCOc1ccc(N=Nc2ccc3oc(=O)c(C(=O)Nc4ccc(OC)cc4)cc3c2)cc1 | 20.4 | 93.9 | – | 26.2 | > 100 | 52.9 | 93.1 | 68 | 63.6 | > 100 | – | > 100 | – | > 100 | > 100 | – | 91.7 | – | –
5 | CC(=O)Nc1cc2c(cc1O)CC[C@@H]1[C@@H]2CC[C@]2(C)[C@@H](O)CC[C@@H]12 | > 100 | > 100 | > 100 | > 100 | 62.2 | > 100 | > 100 | > 100 | > 100 | 54.5 | > 100 | > 100 | > 100 | – | – | – | – | 39.8 | 31.2
6 | COc1cc2c(cc1OC)C1(c3ccccc3)CN(C2)Cc2cc(OC)c(OC)cc21 | 63.8 | > 100 | > 100 | > 100 | 34.2 | 77.6 | > 100 | > 100 | > 100 | > 100 | 53.8 | > 100 | 32.2 | – | – | – | – | – | –
7 | NCC(NC(=O)OCc1ccccc1)C(=O)O (configuration not stated) | > 50 | > 50 | > 50 | > 50 | > 50 | > 50 | > 50 | > 50 | > 50 | > 50 | – | > 50 | – | > 50 | > 50 | > 50 | > 50 | – | –
8 | CC1(C)C2CCC3(OCCO3)C1C1OC12 (configuration not stated) | > 100 | > 100 | > 100 | > 100 | > 100 | > 100 | – | > 100 | – | > 100 | – | > 100 | – | > 100 | – | – | – | – | –
9 | Cc1nc2ccccc2c(=O)n1NC(=O)c1ccccc1O | > 100 | > 100 | > 100 | > 100 | > 100 | > 100 | > 100 | > 100 | > 100 | > 100 | > 100 | > 100 | > 100 | – | – | – | – | – | –
10 | Cc1c(CCCl)c(N=[N+]=[N-])n2c(nc3ccccc32)c1C#N | 2.6 | 1.63 | 3.32 | 1.55 | 2.66 | 3.54 | 3.12 | 3.27 | 5.01 | 2.72 | 3.16 | 1.48 | 1.08 | – | – | – | – | – | –
11 | CC(C)C(=O)/C=C/c1ccc(Cl)cc1 | 28.8 | 23.1 | 42.3 | 11.5 | 59.9 | 52.3 | 36.4 | – | – | – | – | 15.6 | 26.2 | 14 | 30.4 | 39.8 | 29.6 | – | –
12 | CC1=CCC[C@@H]2[C@@](C)(Cc3cc(O)ccc3O)[C@H](C)CC[C@@]12C | 6.6 | 21.7 | 22.4 | 18.8 | 36.5 | 25.7 | 25.1 | 25.5 | 22.1 | 16 | 30.2 | 36 | 12.6 | – | – | – | – | – | –
13 | CCCN(CCCCN1C(=O)c2ccccc2C1=O)CC1COc2ccccc2O1 (configuration not stated) | 95.9 | > 100 | > 100 | > 100 | > 100 | > 100 | > 100 | > 100 | > 100 | > 100 | > 100 | > 100 | 77.6 | – | – | – | – | – | –
14 | CC(C)c1cccc(C(C)C)c1NC(=O)C(=O)C(C(=O)c1ccc2ccccc2c1)C1OC(=O)c2ccccc21 (configuration not stated) | – | > 100 | > 100 | > 100 | > 100 | > 100 | > 100 | > 100 | > 100 | > 100 | – | > 100 | > 100 | – | > 100 | > 100 | > 100 | – | –
15 | CC(=O)NCCc1c[nH]c2ccc(Cl)cc12 | > 100 | > 100 | > 100 | > 100 | > 100 | > 100 | > 100 | > 100 | > 100 | > 100 | > 100 | > 100 | > 100 | – | – | – | – | – | –
16 | Cn1cc(C[C@@H](N)C(=O)O)c2ccccc21 | > 100 | > 100 | > 100 | > 100 | > 100 | > 100 | > 100 | > 100 | > 100 | > 100 | > 100 | > 100 | > 100 | – | – | – | – | – | –
